Reference: ChEMBL document CHEMBL3822444, “Synthesis and cytotoxic evaluation of novel indenoisoquinoline-substituted triazole hybrids” (Bioorg Med Chem Lett, 2016)

Legend:
[1] = tested on: HepG2; assay: Cytotoxicity against human HepG2 cells assessed as growth inhibition measured after 3 days by MTT assay; type: functional, cell-based; conditions: HepG2, 72 h
[2] = tested on: KB; assay: Cytotoxicity against human KB cells assessed as growth inhibition measured after 3 days by MTT assay; type: functional, cell-based; conditions: 72 h

Structure (SMILES) | IC50 [1] | IC50 [2]
O=C1c2ccccc2-c2c1c1ccccc1c(=O)n2CC(O)Cn1cc(CO)nn1 (stereo unspecified) | 0.74 µM | 2.86 µM
O=C1c2ccccc2-c2c1c1ccccc1c(=O)n2Cc1cn(CC(O)Cn2c3c(c4ccccc4c2=O)C(=O)c2ccccc2-3)nn1 (stereo unspecified) | 2.29 µM | 2.89 µM
Cc1ccc(NC(=O)c2ccc(Cn3cc(Cn4c5c(c6ccccc6c4=O)C(=O)c4ccccc4-5)nn3)cc2)cc1Nc1nccc(-c2cccnc2)n1 | 2.33 µM | 1.56 µM
Cc1cn([C@H]2C[C@H](n3cc(COC(=O)[C@H](Cc4ccccc4)n4c5c(c6ccccc6c4=O)C(=O)c4ccccc4-5)nn3)[C@@H](CO)O2)c(=O)[nH]c1=O | 0.48 µM | 0.49 µM
O=C(OCc1cn(CC(O)Cn2c3c(c4ccccc4c2=O)C(=O)c2ccccc2-3)nn1)c1ccc(Cl)cc1 (stereo unspecified) | 9.75 µM | 10.5 µM
Cc1ccc(S(=O)(=O)Nc2cccc(-c3cn(CC(O)Cn4c5c(c6ccccc6c4=O)C(=O)c4ccccc4-5)nn3)c2)cc1 (stereo unspecified) | 69.8 µM | 89.9 µM
CC(=O)OCc1cn(CC(Cn2c3c(c4ccccc4c2=O)C(=O)c2ccccc2-3)OC(C)=O)nn1 (stereo unspecified) | 19 µM | 18.6 µM
[N-]=[N+]=NCC(O)Cn1c2c(c3ccccc3c1=O)C(=O)c1ccccc1-2 (stereo unspecified) | 45 µM | 42 µM
CC(=O)NCc1cn(CC(O)Cn2c3c(c4ccccc4c2=O)C(=O)c2ccccc2-3)nn1 (stereo unspecified) | 9.04 µM | 14.1 µM
O=C1c2ccccc2-c2c1c1ccccc1c(=O)n2CC(O)Cn1cc(CN2CCOCC2)nn1 (stereo unspecified) | 10.2 µM | 1.56 µM
NCc1cn(CC(O)Cn2c3c(c4ccccc4c2=O)C(=O)c2ccccc2-3)nn1 (stereo unspecified) | 195 µM | 50 µM
CC(=O)Nc1cccc(-c2cn(CC(Cn3c4c(c5ccccc5c3=O)C(=O)c3ccccc3-4)OC(C)=O)nn2)c1 (stereo unspecified) | > 234 µM | > 234 µM
Cc1cn([C@H]2C[C@H](n3cc(COC(=O)Cn4c5c(c6ccccc6c4=O)C(=O)c4ccccc4-5)nn3)[C@@H](CO)O2)c(=O)[nH]c1=O | 26.2 µM | 26.2 µM
O=C(NCc1cn(CC(O)Cn2c3c(c4ccccc4c2=O)C(=O)c2ccccc2-3)nn1)c1ccc(Br)cc1 (stereo unspecified) | 43.8 µM | 56.7 µM
O=C1c2ccccc2-c2c1c1ccccc1c(=O)n2CC(O)Cn1cc(CBr)nn1 (stereo unspecified) | 0.76 µM | 0.79 µM
O=C(OCc1cn(CC(O)Cn2c3c(c4ccccc4c2=O)C(=O)c2ccccc2-3)nn1)c1ccc(Br)cc1 (stereo unspecified) | 4.27 µM | 6.28 µM
Nc1cccc(-c2cn(CC(O)Cn3c4c(c5ccccc5c3=O)C(=O)c3ccccc3-4)nn2)c1 (stereo unspecified) | 32 µM | 15.3 µM
Cc1ccc(S(=O)(=O)NCc2cn(CC(O)Cn3c4c(c5ccccc5c3=O)C(=O)c3ccccc3-4)nn2)cc1 (stereo unspecified) | 115 µM | 115 µM
Cc1cn([C@H]2C[C@H](n3cc(Cn4c5c(c6ccccc6c4=O)C(=O)c4ccccc4-5)nn3)[C@@H](CO)O2)c(=O)[nH]c1=O | 0.64 µM | 0.79 µM
Cc1cn([C@H]2C[C@H](n3cc(COC(=O)[C@H](CC(C)C)n4c5c(c6ccccc6c4=O)C(=O)c4ccccc4-5)nn3)[C@@H](CO)O2)c(=O)[nH]c1=O | 2.25 µM | 0.75 µM
COc1ccc(C(=O)OCc2cn(CC(O)Cn3c4c(c5ccccc5c3=O)C(=O)c3ccccc3-4)nn2)cc1 (stereo unspecified) | 11.9 µM | 11.2 µM
Cc1cn([C@H]2C[C@H](n3cc(COC(=O)[C@H](CO)n4c5c(c6ccccc6c4=O)C(=O)c4ccccc4-5)nn3)[C@@H](CO)O2)c(=O)[nH]c1=O | 1.18 µM | 0.35 µM
CC(C)C(=O)NCc1cn(CC(O)Cn2c3c(c4ccccc4c2=O)C(=O)c2ccccc2-3)nn1 (stereo unspecified) | 22.1 µM | 123 µM
Cc1cn([C@@H]2C[C@@H](n3cc(COC(=O)[C@@H](Cc4c[nH]c5ccccc45)n4c5c(c6ccccc6c4=O)C(=O)c4ccccc4-5)nn3)[C@H](CO)O2)c(=O)[nH]c1=O (single isomer, unassigned) | 84.5 µM | 21.6 µM
Cc1c2ccncc2c(C)c2c1[nH]c1ccccc12 [ELLIPTECINE] | 1.46 µM | 1.26 µM
Cc1cn([C@H]2C[C@H](N=[N+]=[N-])[C@@H](CO)O2)c(=O)[nH]c1=O [ZIDOVUDINE] | > 479 µM | 
